Source: patent US20040127492A1 (Pharmacia Corporation, priority 2002, published 2004)
Read-outs that look alike come from different tables or passages of the source.

Experiments:
[1] = biological target: MAPKAPK2 (MK-2) (Homo sapiens, UniProt P49137); assay: Determination of MK-2 IC50 (HSP-peptide phosphorylation, anion exchange resin capture assay); format: biochemical
Procedure: Determination of MK-2 IC50:
Recombinant MAPKAPK2 was phosphorylated at a concentration of 42-78 μM by incubation with 0.23 μM of active p38α in 50 mM HEPES, 0.1 mM EDTA, 10 mM magnesium acetate, and 0.25 mM ATP, pH 7.5 for one hour at 30° C.
The phosphorylation of HSP-peptide ([…]) by MAPKAPK2 was measured using an anion exchange resin capture assay method. The reaction was carried out in 50 mM β-glycerolphosphate, 0.04% BSA, 10 mM magnesium acetate, 2% DMSO and 0.8 mM dithiotheritol, pH 7.5 in the presence of the HSP-peptide with 0.2 μCi [γ^33P]ATP and 0.03 mM ATP. The reaction was initiated by the addition of 15 nM MAPKAPK2 and was allowed to incubate at 30° C. for 30 min. The reaction was terminated and [γ^33P]ATP was removed from solution by the addition of 150 μl of AG 1×8 ion exchange resin in 900 mM sodium formate pH 3.0. A 50 μl aliquot of head volume was removed from the quenched reaction mixture and added to a 96-well plate, 150 μl of Microscint-40 (Packard) was added and the amount of phosphorylated-peptide was determined. Allow the Microscint to sit in the plates for 60 minutes prior to counting.
Compounds are evaluated as potential inhibitors of the MK-2 kinase by measuring their effects on MK-2 phosphorylation of the peptide substrate. Compounds may be screened initially at two concentrations prior to determination of IC50 values. Screening results are expressed as percent inhibition at the concentrations of compound tested. For IC50 value determinations, Compounds are tested at six concentrations in ten-fold serial dilutions with each concentration tested in triplicate. Results are expressed as IC50 values in micromolar. The assay is performed at a final concentration of 2% DMSO.

[2] = biological target: MK-3 (Homo sapiens, UniProt Q16644); assay: MK-3 inhibition IC50 (similar method to MK-2, with appropriate modifications); format: biochemical
Procedure: In practice, the selectivity of a cyclic pyrazole MK-2 inhibitor varies depending upon the condition under which the test is performed and on the inhibitors being tested. However, for the purposes of this specification, the selectivity of a cyclic pyrazole MK-2 inhibitor inhibitor can be measured as a ratio of the in vitro or in vivo IC50 value for inhibition of MK-3, divided by the IC50 value for inhibition of MK-2 (IC50 MK-3/IC50 MK-2). […] The MK-2 or MK-3 inhibiting activity of any of the compounds described herein can be determined by any one of several methods that are well known to those having skill in the art of enzyme activity testing. […] A similar method, with appropriate modifications, Can be used to measure MK-3 inhibitory activity. In addition, the efficacy of one of the present MK-2 inhibiting compounds in therapeutic applications can be determined by testing for inhibition of TNFα production in cell culture and in animal model assays.

[3] = Table 2, pyrazolylpyrazole MK-2 inhibitors, read-out: MK-2 Avg. IC50
[4] = Table 2, pyrazolylpyrazole MK-2 inhibitors, read-out: MK-3 Avg. IC50
[5] = Table 1, phenoxypyrazole MK-2 inhibitors, read-out: MK-2 Avg, IC50
[6] = Table 1, phenoxypyrazole MK-2 inhibitors, read-out: MK-3 Avg. IC50
[7] = Table 5, other cyclic pyrazole MK-2 inhibiting compounds, read-out: MK-2 Avg. IC50
[8] = Table 5, other cyclic pyrazole MK-2 inhibiting compounds, read-out: MK-3 Avg. IC50
[9] = Table 4, pyrimidylpyrazole MK-2 inhibitors, read-out: MK-2 Avg. IC50
[10] = Table 4, pyrimidylpyrazole MK-2 inhibitors, read-out: NK-3 Avg. IC50

MK-3, sequence (Q16644 whole entry, species assumed): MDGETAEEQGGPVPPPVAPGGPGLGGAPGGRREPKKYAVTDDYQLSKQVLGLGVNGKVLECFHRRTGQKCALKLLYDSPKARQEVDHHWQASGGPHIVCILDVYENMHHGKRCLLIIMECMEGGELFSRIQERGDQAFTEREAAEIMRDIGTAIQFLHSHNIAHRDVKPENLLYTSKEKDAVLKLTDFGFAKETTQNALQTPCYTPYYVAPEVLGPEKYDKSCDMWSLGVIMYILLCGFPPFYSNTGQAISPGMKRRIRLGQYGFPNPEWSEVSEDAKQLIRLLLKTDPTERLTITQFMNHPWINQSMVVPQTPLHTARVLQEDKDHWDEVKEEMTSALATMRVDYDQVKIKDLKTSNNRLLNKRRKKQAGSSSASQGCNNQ
MAPKAPK2 (MK-2), sequence (P49137 whole entry, species assumed): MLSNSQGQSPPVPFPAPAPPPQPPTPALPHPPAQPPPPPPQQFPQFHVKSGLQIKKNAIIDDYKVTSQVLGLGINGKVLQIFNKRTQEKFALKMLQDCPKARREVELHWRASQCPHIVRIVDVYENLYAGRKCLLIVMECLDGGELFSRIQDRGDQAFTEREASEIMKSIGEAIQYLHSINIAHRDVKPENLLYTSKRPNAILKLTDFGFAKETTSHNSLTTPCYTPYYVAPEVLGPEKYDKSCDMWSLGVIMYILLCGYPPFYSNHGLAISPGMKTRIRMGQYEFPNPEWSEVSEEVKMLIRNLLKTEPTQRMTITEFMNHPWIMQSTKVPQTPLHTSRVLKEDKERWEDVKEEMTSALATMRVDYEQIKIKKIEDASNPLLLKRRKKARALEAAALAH

SMILES	IC50 [1, 5] [µM]	IC50 [2, 6] [µM]	IC50 ([1]; read-out: MK-2 Avg. IC50) [µM]	IC50 ([2]; read-out: MK-3 Avg. IC50) [µM]	further results
CCOC(=O)c1c2c(nn1CCCNCCc1ccsc1)-c1cn[nH]c1CC2 [Example 36]	–	–	–	–	IC50 [1, 3]: 133 µM; IC50 [2, 4]: ≥ 200 µM
COC(=O)c1nn(-c2ccc(Cl)cc2)c2c1CCc1cc(OC)ccc1-2 [Example 159]	> 200	> 200	–	–	–
O=C1NCCCn2nc3c(c21)CCc1cnc(Nc2ccccc2)cc1-3 [Example 131]	–	–	4.68	25.2	–
O=C(O)c1c2c(nn1CCCNS(=O)(=O)Cc1ccccc1)-c1cc(-c3cnc4ccccc4c3)ncc1CC2 [Example 48]	–	–	0.374	4.51	–
COC(=O)c1[nH]nc2c1CCc1cc(O)ccc1-2 [Example 181]	> 200	> 200	–	–	–
NCCCn1nc2c(c1C(N)=O)CCc1cnc(-c3cnc4ccccc4c3)cc1-2 [Example 51]	–	–	0.473	9.21	–
NC(=O)c1[nH]nc2c1CCc1c-2cnn1CCO [Example 70]	–	–	–	–	IC50 [1, 3]: ≥ 200 µM; IC50 [2, 4]: ≥ 200 µM
C=CCSc1n[nH]c2c1-c1nn(CCCN)c(C(=O)OCC)c1CC2 [Example 31]	–	–	–	–	IC50 [1, 3]: 114 µM; IC50 [2, 4]: ≥ 200 µM
Cn1ncc2c1CCc1c-2n[nH]c1C(N)=O [Example 49]	–	–	–	–	IC50 [1, 3]: ≥ 200 µM; IC50 [2, 4]: ≥ 200 µM
COC(=O)c1[nH]nc2c1CCc1cc(O)c(O)cc1-2 [Example 64]	154	> 200	–	–	–
O=C1NCCn2nc3c(c21)CCc1cnc(/C=C/c2ccccc2F)cc1-3 [Example 11]	–	–	–	–	IC50 [1, 7]: 4.46 µM; IC50 [2, 8]: > 200 µM
CCOC(=O)c1nn(-c2ccc(S(N)(=O)=O)cc2)c2c1CCc1cc(OC)ccc1-2 [Example 178]	> 200	> 200	–	–	–
O=C1NCCCn2nc3c(c21)CCc1[nH]ncc1-3 [Example 13]	–	–	–	–	IC50 [1, 3]: 19.6 µM; IC50 [2, 4]: 144 µM
O=C1NCCn2nc3c(c21)CCc1cnc(/C=C/c2cccc(Cl)c2)cc1-3 [Example 10]	–	–	–	–	IC50 [1, 7]: 2.92 µM; IC50 [2, 8]: > 20 µM
COc1ccc(-n2nc(C(=O)O)c3c2-c2ccc(OC)cc2CC3)cc1 [Example 162]	> 200	> 200	–	–	–
C=CCn1nc2c(c1C(=O)O)CCc1[nH]ncc1-2 [Example 15]	–	–	–	–	IC50 [1, 3]: 22.7 µM; IC50 [2, 4]: 134 µM
CCOC(=O)c1[nH]nc2c1CCc1c-2ccc(O)c1Br [Example 53]	116	> 200	–	–	–

SMILES	IC50 [1, 5] [µM]	IC50 [2, 6] [µM]	IC50 ([1]; read-out: MK-2 Avg. IC50) [µM]	IC50 ([2]; read-out: MK-3 Avg. IC50) [µM]	further results
CCOC(=O)c1[nH]nc2c1CCc1cc(OC)c(OC)cc1-2 [Example 167]	> 200	> 200	–	–	–
COC(=O)c1nn(-c2ccc(OC)cc2)c2c1CCc1cc(OC)ccc1-2 [Example 163]	> 200	> 200	–	–	–
CC1Cc2c(n[nH]c2C(=O)O)-c2ccc(O)cc21 (stereo not drawn) [Example 48]	97.1	> 200	–	–	–
O=C(O)CCn1nc(C(=O)O)c2c1-c1cn[nH]c1CC2 [Example 100]	–	–	–	–	IC50 [1, 3]: ≥ 200 µM; IC50 [2, 4]: ≥ 200 µM
CNC(=O)c1nn(-c2ccc(S(N)(=O)=O)cc2)c2c1CCc1[nH]ncc1-2 [Example 52]	–	–	–	–	IC50 [1, 3]: ≥ 200 µM; IC50 [2, 4]: ≥ 200 µM
O=C1NCCCn2nc3c(c21)CCc1cnc(-c2ccc(O)cc2)cc1-3 [Example 31]	–	–	0.183	2.56	–
CCOC(=O)c1[nH]nc2c1CCc1cc(O)ccc1-2 [Example 70]	176	> 200	–	–	–
O=C(O)c1c2c(nn1CCCNC(c1ccccc1)(c1ccccc1)c1ccccc1)-c1nc(-c3cnc4ccccc4c3)ncc1CC2 [Example 6]	–	–	–	–	IC50 [1, 9]: 2.16 µM; IC50 [2, 10]: 154 µM
COc1ccc2c(c1)CCc1c(C(=O)O)nn(-c3ccc(Cl)cc3)c1-2 [Example 160]	> 200	> 200	–	–	–
N#CCCCn1nc2c(c1C(=O)O)CCc1[nH]ncc1-2 [Example 32]	–	–	–	–	IC50 [1, 3]: 116 µM; IC50 [2, 4]: ≥ 200 µM
NS(=O)(=O)c1ccc(-n2nc(C(=O)O)c3c2-c2cn[nH]c2CC3)cc1 [Example 40]	–	–	–	–	IC50 [1, 3]: 145 µM; IC50 [2, 4]: ≥ 200 µM
NCCCn1nc2c(c1C(=O)O)CCc1cnc(-c3ccccc3)nc1-2 [Example 3]	–	–	–	–	IC50 [1, 9]: 0.406 µM; IC50 [2, 10]: 10.8 µM
NC(=O)c1[nH]nc2c1CCc1cc(O)ccc1-2 [Example 33]	39.2	107	–	–	–
Nc1cc2c(cc1O)CCc1c-2nn2c1C(=O)NCCC2 [Example 45]	88.7	> 200	–	–	–
COc1cc2c(cc1OC)-c1n[nH]c(C(=O)n3ccnc3)c1CC2 [Example 169]	> 200	> 200	–	–	–
C=CCSc1n[nH]c2c1-c1nn(CCCN)c(C(=O)O)c1CC2 [Example 5]	–	–	–	–	IC50 [1, 3]: 2.84 µM; IC50 [2, 4]: 41.4 µM
O=C(O)c1c2c(nn1CCCNS(=O)(=O)Cc1ccc(Cl)cc1)-c1cc(-c3cnc4ccccc4c3)ncc1CC2 [Example 54]	–	–	–	6.46	–

Continued, in another order:

IC50 [1, 5] [µM]	IC50 [2, 6] [µM]	IC50 ([1]; read-out: MK-2 Avg. IC50) [µM]	IC50 ([2]; read-out: MK-3 Avg. IC50) [µM]	SMILES	further results
–	–	0.234	11.6	CC(C)(C)c1ccc(CCCNCCCn2nc3c(c2C(=O)O)CCc2cnccc2-3)cc1 [Example 39]	–
–	–	0.551	7.86	O=C(O)c1c2c(nn1CCCNCCc1ccc(Cl)cc1)-c1ccncc1CC2 [Example 56]	–
–	–	0.0391	0.453	CS(=O)(=O)c1cccc(-c2cc3c(cn2)CCc2c-3nn(CCCN)c2C(=O)O)c1 [Example 11]	–
–	–	0.0786	1.73	NCCCn1nc2c(c1C(=O)O)CCc1cnc(-c3ccc(F)c(F)c3)cc1-2 [Example 17]	–
–	–	0.347	6.59	O=C(O)c1c2c(nn1CCCNCCc1ccc(Cl)cc1Cl)-c1ccncc1CC2 [Example 47]	–
–	–	0.706	43.1	NCCn1nc2c(c1C(=O)O)CCc1cnccc1-2 [Example 68]	–
148	> 200	–	–	COc1cc2c(cc1-c1cccn1C(=O)OC(C)(C)C)-c1nn(CCCNC(=O)OC(C)(C)C)c(C(=O)O)c1CC2 [Example 58]	–
37.4	115	–	–	COc1cc2c(cc1-c1ccc([N+](=O)[O-])cc1)-c1nn(CCCNC(=O)OC(C)(C)C)c(C(=O)O)c1CC2 [Example 32]	–
18.8	120	–	–	CC(C)(C)c1ccc(-c2cc3c(cc2O)CCc2c-3nn(CCCN)c2C(=O)O)cc1 [Example 22]	–
–	–	0.479	34.3	O=C(O)c1c2c(nn1CCCNCCCc1ccc(Cl)cc1)-c1ccncc1CC2 [Example 52]	–
–	–	0.147	9.04	O=C(O)c1c2c(nn1CCCNCCc1ccc(-c3ccc(C(F)(F)F)cc3)cc1)-c1ccncc1CC2 [Example 26]	–
136	169	–	–	Cc1noc(C)c1-c1cc2c(cc1O)CCc1c-2nn(CCCN)c1C(=O)O [Example 55]	–
53.7	> 200	–	–	COc1cc2c(cc1-c1cccc([N+](=O)[O-])c1)-c1nn(CCCNC(=O)OC(C)(C)C)c(C(=O)O)c1CC2 [Example 37]	–
–	–	0.0371	0.995	COc1ccc(-c2cc3c(cn2)CCc2c-3nn(CCCN)c2C(=O)O)cc1 [Example 10]	–
–	–	0.89	17.2	Cc1ccc(CCNCCCn2nc3c(c2C(=O)O)CCc2cnccc2-3)cc1 [Example 72]	–
–	–	0.765	11.9	O=C(O)c1c2c(nn1CCCNCCc1ccc([N+](=O)[O-])cc1)-c1ccncc1CC2 [Example 69]	–
–	–	0.0796	2.18	O=C(O)c1ccc(-c2ccc(CCNCCCn3nc4c(c3C(=O)O)CCc3cnccc3-4)cc2)cc1 [Example 18]	–
–	–	0.574	22.5	Cc1ccc(C(C)CCNCCCn2nc3c(c2C(=O)O)CCc2cnccc2-3)o1 (stereo not drawn) [Example 59]	–
–	–	0.103	10.4	O=C(O)c1c2c(nn1CCCNCCc1ccc(-c3cccc(C(F)(F)F)c3)cc1)-c1ccncc1CC2 [Example 21]	–
–	–	0.22	10.3	O=C(O)c1c2c(nn1CCCNCCCc1ccc(Br)cc1)-c1ccncc1CC2 [Example 38]	–
–	> 200	–	–	COc1cc2c(cc1CCC(F)(F)F)-c1nn(CCCNC(=O)OC(C)(C)C)c(C(=O)O)c1CC2 [Example 54]	–
